Columns and labels:
Midbrain [1] = experiment: Drug uptake in anesthetized cynomolgus monkey brain midbrain after 235 mins postinjection; format: ADME, organism-based, Macaca fascicularis; conditions: in vivo
[2] = Ratio of drug uptake in midbrain to cerebellum in anesthetized cynomolgus monkey after 9.5 mins postinjection; format: ADME, organism-based, Macaca fascicularis; conditions: in vivo
[3] = Ratio of drug uptake in medulla to cerebellum in anesthetized cynomolgus monkey after 1.5 mins postinjection; format: ADME, organism-based, Macaca fascicularis; conditions: in vivo, 0.025 h
[4] = Drug uptake in anesthetized cynomolgus monkey brain cerebellum after 235 mins postinjection; format: ADME, organism-based, Macaca fascicularis; conditions: in vivo
[5] = Ratio of drug uptake in putamen to cerebellum in anesthetized cynomolgus monkey after 75 mins postinjection; format: ADME, organism-based, Macaca fascicularis; conditions: in vivo, 1.25 h
[6] = Ratio of drug uptake in occipital lobe to cerebellum in anesthetized cynomolgus monkey after 95 mins postinjection; format: ADME, organism-based, Macaca fascicularis; conditions: in vivo
[7] = Drug uptake in anesthetized cynomolgus monkey brain frontal lobe after 145 mins postinjection; format: ADME, organism-based, Macaca fascicularis; conditions: in vivo
Caudate [8] = experiment: Drug uptake in anesthetized cynomolgus monkey brain caudate after 45 mins postinjection; format: ADME, organism-based, Macaca fascicularis, Caudate nucleus; conditions: in vivo, 0.75 h
[9] = Ratio of drug uptake in pons to cerebellum in anesthetized cynomolgus monkey after 175 mins postinjection; format: ADME, organism-based, Macaca fascicularis; conditions: in vivo
[10] = Drug uptake in anesthetized cynomolgus monkey brain cerebellum after 35 mins postinjection; format: ADME, organism-based, Macaca fascicularis; conditions: in vivo
[11] = Drug uptake in anesthetized cynomolgus monkey brain occipital lobe after 35 mins postinjection; format: ADME, organism-based, Macaca fascicularis; conditions: in vivo
Thalamus [12] = experiment: Drug uptake in anesthetized cynomolgus monkey brain thalamus after 125 mins postinjection; format: ADME, organism-based, Macaca fascicularis; parameters: unit not given here; conditions: in vivo
[13] = Drug uptake in anesthetized cynomolgus monkey brain occipital lobe after 2.5 mins postinjection; format: ADME, organism-based, Macaca fascicularis; conditions: in vivo
Medulla [14] = experiment: Drug uptake in anesthetized cynomolgus monkey brain medulla after 18.5 mins postinjection; format: ADME, organism-based, Macaca fascicularis; conditions: in vivo
Pons [15] = experiment: Drug uptake in anesthetized cynomolgus monkey brain pons after 9.5 mins postinjection; format: ADME, organism-based, Macaca fascicularis; conditions: in vivo
[16] = Ratio of drug uptake in midbrain to cerebellum in anesthetized cynomolgus monkey after 135 mins postinjection; format: ADME, organism-based, Macaca fascicularis; conditions: in vivo, 2.25 h
Medulla [17] = experiment: Drug uptake in anesthetized cynomolgus monkey brain medulla after 205 mins postinjection; format: ADME, organism-based, Macaca fascicularis; conditions: in vivo
[18] = Drug uptake in anesthetized cynomolgus monkey brain frontal lobe after 125 mins postinjection; format: ADME, organism-based, Macaca fascicularis; conditions: in vivo
Pons [19] = experiment: Drug uptake in anesthetized cynomolgus monkey brain pons after 0.5 mins postinjection; format: ADME, organism-based, Macaca fascicularis; conditions: in vivo
Caudate [20] = experiment: Drug uptake in anesthetized cynomolgus monkey brain caudate after 35 mins postinjection; format: ADME, organism-based, Macaca fascicularis, Caudate nucleus; conditions: in vivo
[21] = Drug uptake in anesthetized cynomolgus monkey brain frontal lobe after 1.5 mins postinjection; format: ADME, organism-based, Macaca fascicularis; conditions: in vivo, 0.025 h
Pons [22] = experiment: Drug uptake in anesthetized cynomolgus monkey brain pons after 65 mins postinjection; format: ADME, organism-based, Macaca fascicularis; conditions: in vivo
[23] = Ratio of drug uptake in midbrain to cerebellum in anesthetized cynomolgus monkey after 215 mins postinjection; format: ADME, organism-based, Macaca fascicularis; conditions: in vivo
[24] = Ratio of drug uptake in midbrain to cerebellum in anesthetized cynomolgus monkey after 185 mins postinjection; format: ADME, organism-based, Macaca fascicularis; conditions: in vivo
Thalamus [25] = experiment: Drug uptake in anesthetized cynomolgus monkey brain thalamus after 165 mins postinjection; format: ADME, organism-based, Macaca fascicularis; parameters: unit not given here; conditions: in vivo, 2.75 h
Medulla [26] = experiment: Drug uptake in anesthetized cynomolgus monkey brain medulla after 135 mins postinjection; format: ADME, organism-based, Macaca fascicularis; conditions: in vivo, 2.25 h
[27] = Drug uptake in anesthetized cynomolgus monkey brain occipital lobe after 135 mins postinjection; format: ADME, organism-based, Macaca fascicularis; conditions: in vivo, 2.25 h
[28] = Ratio of drug uptake in occipital lobe to cerebellum in anesthetized cynomolgus monkey after 105 mins postinjection; format: ADME, organism-based, Macaca fascicularis; conditions: in vivo, 1.75 h
Caudate [29] = experiment: Drug uptake in anesthetized cynomolgus monkey brain caudate after 225 mins postinjection; format: ADME, organism-based, Macaca fascicularis, Caudate nucleus; conditions: in vivo, 3.75 h
Pons [30] = experiment: Drug uptake in anesthetized cynomolgus monkey brain pons after 85 mins postinjection; format: ADME, organism-based, Macaca fascicularis; conditions: in vivo
[31] = Drug uptake in anesthetized cynomolgus monkey brain frontal lobe after 18.5 mins postinjection; format: ADME, organism-based, Macaca fascicularis; conditions: in vivo
Caudate [32] = experiment: Drug uptake in anesthetized cynomolgus monkey brain caudate after 3.5 mins postinjection; format: ADME, organism-based, Macaca fascicularis, Caudate nucleus; conditions: in vivo
Putamen [33] = experiment: Drug uptake in anesthetized cynomolgus monkey brain putamen after 9.5 mins postinjection; format: ADME, organism-based, Macaca fascicularis; parameters: unit not given here; conditions: in vivo
[34] = Ratio of drug uptake in occipital lobe to cerebellum in anesthetized cynomolgus monkey after 125 mins postinjection; format: ADME, organism-based, Macaca fascicularis; conditions: in vivo
[35] = Ratio of drug uptake in frontal lobe to cerebellum in anesthetized cynomolgus monkey after 195 mins postinjection; format: ADME, organism-based, Macaca fascicularis; conditions: in vivo, 3.25 h
Thalamus [36] = experiment: Drug uptake in anesthetized cynomolgus monkey brain thalamus after 195 mins postinjection; format: ADME, organism-based, Macaca fascicularis; conditions: in vivo, 3.25 h
Putamen [37] = experiment: Drug uptake in anesthetized cynomolgus monkey brain putamen after 155 mins postinjection; format: ADME, organism-based, Macaca fascicularis; conditions: in vivo
Putamen [38] = experiment: Drug uptake in anesthetized cynomolgus monkey brain putamen after 27.5 mins postinjection; format: ADME, organism-based, Macaca fascicularis; parameters: unit not given here; conditions: in vivo
Thalamus [39] = experiment: Drug uptake in anesthetized cynomolgus monkey brain thalamus after 145 mins postinjection; format: ADME, organism-based, Macaca fascicularis; parameters: unit not given here; conditions: in vivo
[40] = Drug uptake in anesthetized cynomolgus monkey brain occipital lobe after 9.5 mins postinjection; format: ADME, organism-based, Macaca fascicularis; conditions: in vivo
Pons [41] = experiment: Drug uptake in anesthetized cynomolgus monkey brain pons after 175 mins postinjection; format: ADME, organism-based, Macaca fascicularis; conditions: in vivo
Midbrain [42] = experiment: Drug uptake in anesthetized cynomolgus monkey brain midbrain after 115 mins postinjection; format: ADME, organism-based, Macaca fascicularis; parameters: unit not given here; conditions: in vivo
[43] = Ratio of drug uptake in medulla to cerebellum in anesthetized cynomolgus monkey after 0.5 mins postinjection; format: ADME, organism-based, Macaca fascicularis; conditions: in vivo
Putamen [44] = experiment: Drug uptake in anesthetized cynomolgus monkey brain putamen after 165 mins postinjection; format: ADME, organism-based, Macaca fascicularis; conditions: in vivo, 2.75 h
Midbrain [45] = experiment: Drug uptake in anesthetized cynomolgus monkey brain midbrain after 135 mins postinjection; format: ADME, organism-based, Macaca fascicularis; conditions: in vivo, 2.25 h
Medulla [46] = experiment: Drug uptake in anesthetized cynomolgus monkey brain medulla after 105 mins postinjection; format: ADME, organism-based, Macaca fascicularis; conditions: in vivo, 1.75 h
Caudate [47] = experiment: Drug uptake in anesthetized cynomolgus monkey brain caudate after 12.5 mins postinjection; format: ADME, organism-based, Macaca fascicularis, Caudate nucleus; conditions: in vivo
Caudate [48] = experiment: Drug uptake in anesthetized cynomolgus monkey brain caudate after 75 mins postinjection; format: ADME, organism-based, Macaca fascicularis, Caudate nucleus; conditions: in vivo, 1.25 h
[49] = Ratio of drug uptake in medulla to cerebellum in anesthetized cynomolgus monkey after 9.5 mins postinjection; format: ADME, organism-based, Macaca fascicularis; conditions: in vivo
Medulla [50] = experiment: Drug uptake in anesthetized cynomolgus monkey brain medulla after 185 mins postinjection; format: ADME, organism-based, Macaca fascicularis; conditions: in vivo
[51] = Drug uptake in anesthetized cynomolgus monkey brain cerebellum after 1.5 mins postinjection; format: ADME, organism-based, Macaca fascicularis; conditions: in vivo, 0.025 h
[52] = Drug uptake in anesthetized cynomolgus monkey brain cerebellum after 205 mins postinjection; format: ADME, organism-based, Macaca fascicularis; conditions: in vivo
Putamen [53] = experiment: Drug uptake in anesthetized cynomolgus monkey brain putamen after 45 mins postinjection; format: ADME, organism-based, Macaca fascicularis; parameters: unit not given here; conditions: in vivo, 0.75 h
Pons [54] = experiment: Drug uptake in anesthetized cynomolgus monkey brain pons after 15.5 mins postinjection; format: ADME, organism-based, Macaca fascicularis; conditions: in vivo
Putamen [55] = experiment: Drug uptake in anesthetized cynomolgus monkey brain putamen after 75 mins postinjection; format: ADME, organism-based, Macaca fascicularis; parameters: unit not given here; conditions: in vivo, 1.25 h
[56] = Drug uptake in anesthetized cynomolgus monkey brain cerebellum after 135 mins postinjection; format: ADME, organism-based, Macaca fascicularis; conditions: in vivo, 2.25 h
[57] = Ratio of drug uptake in pons to cerebellum in anesthetized cynomolgus monkey after 105 mins postinjection; format: ADME, organism-based, Macaca fascicularis; conditions: in vivo, 1.75 h
[58] = Ratio of drug uptake in caudate to cerebellum in anesthetized cynomolgus monkey after 9.5 mins postinjection; format: ADME, organism-based, Macaca fascicularis; conditions: in vivo
[59] = Drug uptake in anesthetized cynomolgus monkey brain cerebellum after 6.5 mins postinjection; format: ADME, organism-based, Macaca fascicularis; conditions: in vivo
[60] = Drug uptake in anesthetized cynomolgus monkey brain occipital lobe after 145 mins postinjection; format: ADME, organism-based, Macaca fascicularis; conditions: in vivo
[61] = Drug uptake in anesthetized cynomolgus monkey brain occipital lobe after 115 mins postinjection; format: ADME, organism-based, Macaca fascicularis; conditions: in vivo
Midbrain [62] = experiment: Drug uptake in anesthetized cynomolgus monkey brain midbrain after 165 mins postinjection; format: ADME, organism-based, Macaca fascicularis; conditions: in vivo, 2.75 h
[63] = Drug uptake in anesthetized cynomolgus monkey brain frontal lobe after 165 mins postinjection; format: ADME, organism-based, Macaca fascicularis; conditions: in vivo, 2.75 h
Thalamus [64] = experiment: Drug uptake in anesthetized cynomolgus monkey brain thalamus after 27.5 mins postinjection; format: ADME, organism-based, Macaca fascicularis; parameters: unit not given here; conditions: in vivo
[65] = Drug uptake in anesthetized cynomolgus monkey brain frontal lobe after 6.5 mins postinjection; format: ADME, organism-based, Macaca fascicularis; conditions: in vivo
Midbrain [66] = experiment: Drug uptake in anesthetized cynomolgus monkey brain midbrain after 65 mins postinjection; format: ADME, organism-based, Macaca fascicularis; parameters: unit not given here; conditions: in vivo
Medulla [67] = experiment: Drug uptake in anesthetized cynomolgus monkey brain medulla after 155 mins postinjection; format: ADME, organism-based, Macaca fascicularis; conditions: in vivo
Caudate [68] = experiment: Drug uptake in anesthetized cynomolgus monkey brain caudate after 175 mins postinjection; format: ADME, organism-based, Macaca fascicularis, Caudate nucleus; conditions: in vivo

Q: Which results are given for O=C(OCCC[18F])C1C2CCC(CC1c1cccc(/C=C\I)c1)N2 (stereo not drawn)?
A: Drug uptake (Midbrain [1]): 3.57; Ratio [2]: 0.9; Ratio [3]: 1.3; Drug uptake [4]: 1.93; Ratio [5]: 1.3; Ratio [6]: 1; Drug uptake [7]: 2.29; Drug uptake (Caudate [8]): 4.05; Ratio [9]: 1.4; Drug uptake [10]: 4.74; Drug uptake [11]: 4.01; Drug uptake (Thalamus [12]): 4.15; Drug uptake [13]: 0.62; Drug uptake (Medulla [14]): 4.6; Drug uptake (Pons [15]): 3.47; Ratio [16]: 1.7; Drug uptake (Medulla [17]): 3.76; Drug uptake [18]: 2.54; Drug uptake (Pons [19]): 0.01; Drug uptake (Caudate [20]): 3.9; Drug uptake [21]: 0.16; Drug uptake (Pons [22]): 4.54; Ratio [23]: 1.8; Ratio [24]: 1.9; Drug uptake (Thalamus [25]): 3.67; Drug uptake (Medulla [26]): 4.5; Drug uptake [27]: 2.82; Ratio [28]: 1; Drug uptake (Caudate [29]): 2.46; Drug uptake (Pons [30]): 4.12; Drug uptake [31]: 2.5; Drug uptake (Caudate [32]): 1.15; Drug uptake (Putamen [33]): 3.75; Ratio [34]: 1.1; Ratio [35]: 0.9; Drug uptake (Thalamus [36]): 3.2; Drug uptake (Putamen [37]): 3.8; Drug uptake (Putamen [38]): 4.9; Drug uptake (Thalamus [39]): 3.93; Drug uptake [40]: 3.14; Drug uptake (Pons [41]): 3.41; Drug uptake (Midbrain [42]): 4.76; Ratio [43]: 1.5; Drug uptake (Putamen [44]): 3.74; Drug uptake (Midbrain [45]): 4.45; Drug uptake (Medulla [46]): 4.34; Drug uptake (Caudate [47]): 3; Drug uptake (Caudate [48]): 4.05; Ratio [49]: 0.9; Drug uptake (Medulla [50]): 3.93; Drug uptake [51]: 0.27; Drug uptake [52]: 1.91; Drug uptake (Putamen [53]): 5.05; Drug uptake (Pons [54]): 3.62; Drug uptake (Putamen [55]): 4.92; Drug uptake [56]: 2.66; Ratio [57]: 1.2; Ratio [58]: 0.6; Drug uptake [59]: 3.91; Drug uptake [60]: 2.82; Drug uptake [61]: 3.09; Drug uptake (Midbrain [62]): 4.26; Drug uptake [63]: 2.08; Drug uptake (Thalamus [64]): 4.66; Drug uptake [65]: 1.88; Drug uptake (Midbrain [66]): 4.97; Drug uptake (Medulla [67]): 4.09; Drug uptake (Caudate [68]): 2.83

From ChEMBL document CHEMBL1151757, “Synthesis, radiosynthesis, and biological evaluation of fluorine-18-labeled 2beta-carbo(fluoroalkoxy)-3beta-(3'-((Z)-2-haloethenyl)phenyl)nortropanes: candidate radioligands for in vivo imaging of the serotonin transporter with positron emission tomography” (J Med Chem, 2008)
